This is an account of results in patent US20090169630A1, “Methods and Compositions for Controlled and Sustained Production and Delivery of Peroxides and/or Oxygen for Biological and Industrial Applications” (priority 2006, published 2009).

Data set [1] can be described thus: Permeation (diffusion) cell: hydrogen peroxide release from UHP/PFC slurry across a flat PLGA membrane. It counts as physicochemical. Conditions: UHP/PFC slurry below, distilled water above. An excerpt: A diffusion cell was constructed in order to measure the release rate of hydrogen peroxide from UHP and its diffusion across a selectively permeable membrane. UHP was dispersed in a PFC liquid and maintained in the bottom half of the cell. Rather than coat the particles, a flat PLGA membrane was used to separate the UHP from distilled water located in the top half of the cell. The PLGA membrane is permeable to water and hydrogen peroxide, but is a very effective barrier to permeation of the PFC. Thus, during the experiment, water diffused across the PLGA membrane and into the PFC/UHP slurry in the bottom half of the cell. Hydrogen peroxide was generated when the water contacted the UHP. The hydrogen peroxide then diffused through the PLGA membrane into the top half of the diffusion cell.
The amount of hydrogen peroxide in the top half of the cell was monitored colorimetrically by testing samples that were periodically removed from the water-rich phase in the top half of the cell. […]

In the next data set the test system is hypoxemic rabbits. Conditions: cited from earlier work.

Molecules are shown by their SMILES.

`NC(N)=O` [urea]: the “diffusion through the PLGA membrane” value in data set [1] is “did not diffuse through the membrane”.

Turning to `NC(N)=O.OO` [UHP, urea hydrogen peroxide], the “rise in arterial PO2” value with hypoxemic rabbits (hypoxemic rabbits, intravenous UHP) is 10 mmHg. Also, in the data set on hypoxemic rabbits (rabbits, high UHP amounts), the “outcome at amounts that would supply the oxygen consumption needs of a rabbit” value was “died of gas emboli”.
